Test results published in publication PMC6704710, “Preclinical evaluation of 3D185, a novel potent inhibitor of FGFR1/2/3 and CSF-1R, in FGFR-dependent and macrophage-dominant cancer models” (Journal of Experimental & Clinical Cancer Research : CR, 2019).

What was measured:
Assay in all cases: Eurofins kinase panel
Type in all cases: biochemical
Settings in all cases: read-out: Inhibition rate (%)
NEK7(h) = molecular target: T1, NEK7(h) (Homo sapiens, UniProt Q8TDX7)
T1 construct: purchased Eurofins (KinaseProfiler)

PKG1α(h) = molecular target: T2, PKG1α(h) (Homo sapiens, UniProt Q13976)
T2 construct: purchased Eurofins (KinaseProfiler)
T2 sequence (Q13976 1-671): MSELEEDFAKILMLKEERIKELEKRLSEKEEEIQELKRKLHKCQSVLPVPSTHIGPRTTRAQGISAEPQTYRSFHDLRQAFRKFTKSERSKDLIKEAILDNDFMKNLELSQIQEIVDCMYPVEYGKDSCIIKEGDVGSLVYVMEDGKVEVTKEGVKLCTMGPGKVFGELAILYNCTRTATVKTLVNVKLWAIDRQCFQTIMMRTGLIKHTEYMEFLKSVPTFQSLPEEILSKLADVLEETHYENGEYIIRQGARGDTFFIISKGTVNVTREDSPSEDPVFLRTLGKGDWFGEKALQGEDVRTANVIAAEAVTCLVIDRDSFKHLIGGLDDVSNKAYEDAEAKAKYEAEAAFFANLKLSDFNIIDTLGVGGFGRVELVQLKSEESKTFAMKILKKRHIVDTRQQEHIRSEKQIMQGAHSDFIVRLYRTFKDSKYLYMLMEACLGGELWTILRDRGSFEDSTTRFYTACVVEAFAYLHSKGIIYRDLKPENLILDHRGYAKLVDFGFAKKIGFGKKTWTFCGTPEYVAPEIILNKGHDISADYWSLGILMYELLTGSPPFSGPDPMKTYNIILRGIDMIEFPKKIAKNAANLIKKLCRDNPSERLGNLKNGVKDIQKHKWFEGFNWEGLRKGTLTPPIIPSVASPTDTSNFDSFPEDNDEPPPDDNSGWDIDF

NEK9(h) = molecular target: T3, NEK9(h) (Homo sapiens, UniProt Q8TD19)
T3 construct: purchased Eurofins (KinaseProfiler)
T3 sequence (Q8TD19 1-979): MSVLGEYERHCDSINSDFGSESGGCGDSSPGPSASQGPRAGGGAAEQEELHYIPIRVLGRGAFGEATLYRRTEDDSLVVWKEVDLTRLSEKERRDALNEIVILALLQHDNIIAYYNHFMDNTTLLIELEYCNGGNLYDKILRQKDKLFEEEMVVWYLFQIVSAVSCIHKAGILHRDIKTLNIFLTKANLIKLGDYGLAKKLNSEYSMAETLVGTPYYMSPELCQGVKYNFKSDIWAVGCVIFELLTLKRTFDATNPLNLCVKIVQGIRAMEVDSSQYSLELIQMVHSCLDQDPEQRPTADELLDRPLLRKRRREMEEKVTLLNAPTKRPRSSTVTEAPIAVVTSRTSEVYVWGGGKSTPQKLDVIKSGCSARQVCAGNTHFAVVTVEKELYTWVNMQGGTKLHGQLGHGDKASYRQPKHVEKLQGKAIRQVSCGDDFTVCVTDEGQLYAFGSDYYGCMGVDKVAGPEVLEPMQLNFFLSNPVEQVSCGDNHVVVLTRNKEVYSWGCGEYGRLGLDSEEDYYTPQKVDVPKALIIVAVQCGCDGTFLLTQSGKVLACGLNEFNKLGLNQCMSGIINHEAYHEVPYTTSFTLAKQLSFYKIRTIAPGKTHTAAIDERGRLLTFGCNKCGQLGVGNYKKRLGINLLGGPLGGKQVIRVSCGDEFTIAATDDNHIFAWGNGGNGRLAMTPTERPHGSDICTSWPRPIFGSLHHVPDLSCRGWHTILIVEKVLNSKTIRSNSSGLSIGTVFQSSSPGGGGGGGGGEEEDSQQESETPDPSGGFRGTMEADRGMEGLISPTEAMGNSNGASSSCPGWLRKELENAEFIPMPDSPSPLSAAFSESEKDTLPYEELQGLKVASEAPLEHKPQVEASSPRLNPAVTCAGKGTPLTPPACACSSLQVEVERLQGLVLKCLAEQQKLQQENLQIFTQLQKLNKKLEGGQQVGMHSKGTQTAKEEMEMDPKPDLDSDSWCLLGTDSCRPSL

Ret (V804L)(h) = molecular target: T4, Ret (V804L)(h) (Homo sapiens, UniProt P07949, V804L)
T4 construct: purchased Eurofins (KinaseProfiler)
T4 sequence (P07949 29-1114 V804L): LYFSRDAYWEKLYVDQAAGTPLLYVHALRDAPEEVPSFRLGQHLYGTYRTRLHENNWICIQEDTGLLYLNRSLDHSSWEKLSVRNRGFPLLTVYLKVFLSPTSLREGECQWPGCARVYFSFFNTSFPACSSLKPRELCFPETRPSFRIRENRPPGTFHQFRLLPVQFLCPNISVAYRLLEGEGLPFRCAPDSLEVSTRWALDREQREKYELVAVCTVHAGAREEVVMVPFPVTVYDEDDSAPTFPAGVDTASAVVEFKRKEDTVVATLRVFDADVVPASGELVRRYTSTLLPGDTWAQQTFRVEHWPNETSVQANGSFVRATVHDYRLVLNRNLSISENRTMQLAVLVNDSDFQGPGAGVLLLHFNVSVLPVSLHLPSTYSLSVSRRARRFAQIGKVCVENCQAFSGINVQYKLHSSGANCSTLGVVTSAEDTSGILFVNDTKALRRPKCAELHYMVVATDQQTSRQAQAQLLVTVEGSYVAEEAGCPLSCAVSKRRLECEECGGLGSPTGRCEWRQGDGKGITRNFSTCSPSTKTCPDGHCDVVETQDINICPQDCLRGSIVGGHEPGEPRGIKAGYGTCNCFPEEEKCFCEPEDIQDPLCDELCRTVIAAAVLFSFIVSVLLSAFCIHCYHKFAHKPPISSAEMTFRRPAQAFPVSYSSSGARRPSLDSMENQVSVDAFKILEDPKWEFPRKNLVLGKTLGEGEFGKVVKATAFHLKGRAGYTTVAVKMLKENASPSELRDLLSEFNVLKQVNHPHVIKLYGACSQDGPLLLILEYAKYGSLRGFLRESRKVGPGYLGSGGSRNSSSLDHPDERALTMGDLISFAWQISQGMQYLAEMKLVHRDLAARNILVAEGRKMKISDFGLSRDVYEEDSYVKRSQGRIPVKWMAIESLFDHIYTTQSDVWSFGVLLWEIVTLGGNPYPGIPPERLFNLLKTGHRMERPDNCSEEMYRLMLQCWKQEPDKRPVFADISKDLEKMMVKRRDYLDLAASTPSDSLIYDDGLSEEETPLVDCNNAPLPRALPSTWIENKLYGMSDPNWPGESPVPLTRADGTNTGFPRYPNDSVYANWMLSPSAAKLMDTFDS

T1 sequence (Q8TDX7 whole entry): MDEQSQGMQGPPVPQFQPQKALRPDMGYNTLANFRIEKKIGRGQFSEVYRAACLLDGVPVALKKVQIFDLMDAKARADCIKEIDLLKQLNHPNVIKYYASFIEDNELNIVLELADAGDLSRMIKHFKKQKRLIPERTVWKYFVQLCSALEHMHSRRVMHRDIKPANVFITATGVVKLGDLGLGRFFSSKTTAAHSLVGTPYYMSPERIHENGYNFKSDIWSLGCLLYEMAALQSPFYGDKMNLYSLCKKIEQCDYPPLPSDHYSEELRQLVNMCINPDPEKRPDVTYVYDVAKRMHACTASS

## COc1cc(OC)c(Cl)c(-c2ccc3c(NC(=O)c4ccc(N5CCNC(C)(C)C5)cc4)n[nH]c3n2)c1Cl [3D185]
NEK7(h); 10 nM
  inhibition at 0.01 µM: 2%
NEK7(h); 100 nM
  inhibition at 0.1 µM: 1%
NEK7(h); 1000 nM
  inhibition at 1 µM: -1%
PKG1α(h); 10 nM
  inhibition at 0.01 µM: -1%
PKG1α(h); 100 nM
  inhibition at 0.1 µM: -2%
PKG1α(h); 1000 nM
  inhibition at 1 µM: 1%
NEK9(h); 10 nM
  inhibition at 0.01 µM: -12%
NEK9(h); 100 nM
  inhibition at 0.1 µM: -6%
NEK9(h); 1000 nM
  inhibition at 1 µM: 14%
Ret (V804L)(h); 10 nM
  inhibition at 0.01 µM: -13%
Ret (V804L)(h); 100 nM
  inhibition at 0.1 µM: -15%
Ret (V804L)(h); 1000 nM
  inhibition at 1 µM: 20%
